We go through two compounds from patent publication US20220119375A1, “3-ARYLOXY-3-ARYL-PROPYLAMINE COMPOUND AND USES THEREOF” (Zhangzhou Pien Tze Huang Pharmaceutical Co., Ltd., priority 2018, published 2022).

One data set deals with HepG2 cell. In words: Cytotoxicity test (CCK-8), hepatotoxicity. The format is cell-based. To be noted: Homo sapiens, 72 h. On the procedure: HepG-2 and SH—SY5Y cells were placed in 10 cm dish and cultured at 37° C., 5% CO2 in a cell incubator. Trypsin was used to digest and resuspend cells and cells were counted. The cells were transferred to 96-well plate with 8000 cells in a well (100 μl/well). A serial of gradient concentration dilutions of compound with 2-fold dilution were prepared, and the system was 100 μL/well. The supernatant of cell culture system in the 96-well plate was removed on the first day, and fresh-prepared drug concentration system was add into culture plate wells (duplicate wells were set). The cells were cultured at 37° C., 5% CO2 in a cell incubator for 72 h. After the cell culture was completed, the supernatant of cell culture system was removed from 96-well plate, 100 μl of detection solution containing 10% CCK-8 medium was added into each well, and the cells were cultured at 37° C., 5% CO2 in a cell incubator for 1 h. Microplate reader was used to measure the absorbance at 450 nm. Data was processed to calculate cytotoxicity, and IC50 was calculated by GraphPad Prism. […]
A (Dosing): the absorbance of wells containing cells, CCK-8 solution and drug solution.
A (control): the absorbance of wells containing medium and CCK-8 solution and without cells.
A (0 Dosing): the absorbance of wells containing cells and CCK-8 solution but without drug solution.

Data set [1] in a line: Pharmacokinetic test in rat. The format is in vivo. To be noted: for bioavailability: oral, calculated on AUC(0-∞); for half-life: read-out: T½ (converted). How it is done:
A certain amount of sample was weighed and dissolved in deionized water to prepare 1 mg/mL of solution. Male SD rats were used as test animals. The dose of single intravenous (IV) injection was 2 mg/kg, and the dose of oral (PO) administration was 10 mg/kg. Each group had three rats. The rats in oral group were fasted for 10-14 hours before administration, and were fed 4 hours after administration. Animal blood collection time points were as follows: before administration, and 5 min, 15 min, 30 min, 1 h, 2 h, 4 h, 6 h, 8 h, and 24 h after administration for intravenous administration; before administration, and 15 min, 30 min, 1 h, 2 h, 4 h, 6 h, 8 h and 24 h after administration for oral administration. About 0.25 mL of blood was collected via the jugular vein from each animal, and heparin sodium was used for anticoagulation. After collecting the blood samples, the blood samples were placed on ice and centrifuged to separate the plasma (centrifugation conditions: 8000 rpm, 6 min, 4° C.). The collected plasma was stored at −80° C. before analysis. 50 μL of plasma sample was taken into 1.5 mL of centrifuge tube, 250 μL of internal standard solution was added, and the same volume of methanol rather than internal standard solution was added in the blank group. The mixture was vortexed and mixed, centrifuged at 14,000 rpm for 5 min, 200 μL of supernatant was taken into 96-well sample plate, and the LC-MS/MS was used for sample analysis. In the linear regression analysis, the peak area was taken as the y-axis and the drug concentration was taken as the x-axis. The linear relationship between the peak area ratio and the concentration was expressed by the correlation coefficient (R) obtained from the regression equation of the compound. According to the blood concentration data of the drug, the pharmacokinetic calculation software WinNonlin7.0 non-compartmental model was used to calculate the pharmacokinetic parameters of the test drug.
Internal standard working solution: a certain amount of tolbutamide internal standard stock solution with a concentration of 490,000 ng/mL was taken into a volumetric flask with a certain volume, diluted to a desired volume with methanol and mixed well to obtain the internal standard working solution with a concentration of 200 ng/mL.

Data set [2] relates to ICR mice, acetic acid writhing pain model. In words: mice acetic acid writhing pain model. To be noted: for number of appearance of writhing reaction: within 30 min, saline group 49 times. The format is in vivo, mouse. On the procedure:
Male ICR mice, weighed 22-25 g, were fasted but allowed to drink water freely for 2 h before administration. All ICR mice were weighed and grouped randomly, and the number of animals in each group was >10. […] The test compound was IC-1 (the compound prepared in Example 9), and the administration dosages were 5 mg/kg and 10 mg/kg. […] When concave abdomen, stretched trunk and hind claw, and high buttocks appeared, one number point was recorded. […] After administration, the fewer visceral pains in the mice were, the stronger the analgesic effect of the compound was.
A general note: An intraperitoneal irritant provokes the stretching counted in writhing tests.

The test system of data set [3] is C57 mice, hot plate pain model. The experiment in a line: mice hot plate pain model. The format is in vivo, mouse. To be noted: 10 mg/kg intraperitoneal, hot plate 55±0.1° C., within 60 minutes. How it is done:
SPF-grade C57 male mice were placed at hot plate with constant 55±0.1° C. […] If the pain reaction of mice was observed, the mice were taken out immediately to prevent mice from scalding. […] The test compounds were freshly prepared on the day of administration. 0.9% NaCl physiological saline solution was prepared as solvent for later use. Appropriate amount of test compounds were added into required volume of physiological saline and fully suspended, and the concentration of the drug compound in preparation was 1 mg/ml. The standard volume of administration to mice was 10 ml/kg (or 0.1 ml/10 g). […] The administration volume was 10 ml/kg. […] Hot plate observation index: the reaction time of mice on the hot plate at 55±0.1° C. (Time latency). Measurement and recording were conducted at 3 h before administration and 15 min, 30 min, and 60 min after administration. Maximum possible effect (MPE) % was used to evaluate analgesic effect of each compound, i.e., MPE %=[(Post drug latency-baseline latency)/(30-baseline latency)]×100. MPE % at different time points was recorded. The higher the value of MPE % was, the stronger the analgesic effect of the compound was.

Read-outs that look alike come from different tables or passages of the source.

In the data set with HepG2 cell, `CNCC[C@H](Oc1cccc2ccccc12)c1cccs1` [Duloxetine (S configuration), Duloxetine] returned an IC50 of 33 µM. Also, the “Tmax” value in data set [1] (PO 10 mg/kg, 10 mg/kg) amounted to 0.833 h; in data set [1] (male, SD, plasma, iv, 2 mg/kg, IV 2 mg/kg, read-out: Tmax) it was 0.083 h; in data set [1] (male, SD, plasma, po, 10 mg/kg, PO 10 mg/kg, read-out: Tmax), 0.83 h. Also, in data set [1] (male, SD, plasma, 10 mg/kg), the bioavailability was 9.9%. Also, the AUC(0-inf) in data set [1] (male, SD, plasma, IV 2 mg/kg) was 449 ng·h/mL; in data set [1] (male, SD, plasma, PO 10 mg/kg) it was 222 ng·h/mL. The Cmax in data set [1] (male, SD, plasma, IV 2 mg/kg) came out at 177 ng/mL; in data set [1] (male, SD, plasma, PO 10 mg/kg), 76 ng/mL. For the same compound, the half-life in data set [1] (male, SD, plasma, IV 2 mg/kg) is 1.77 h; in data set [1] (male, SD, plasma, PO 10 mg/kg), 1.81 h. In addition, the “number of appearance of writhing reaction” value in data set [2] (10 mg/kg by gavage) came out at 27 times; in data set [2] (20 mg/kg by gavage), 21 times.

For the compound `CNCC[C@H](Oc1cccc2ccoc12)c1cccs1` [Compound IC-1, (S)-3-(benzofuran-7-yloxy)-N-methyl-3-(thiophen-2-yl)propyl-1-amine], the “analgesic effect (MPE %) on hot plate” value in data set [3] was “stronger than those of gabapentin and duloxetine”. Further, the bioavailability in data set [1] (male, SD, plasma, 10 mg/kg) was 179%. Moreover, in data set [1] (male, SD, plasma, IV 2 mg/kg), the AUC(0-inf) was 449 ng·h/mL, the Cmax turned out to be 170 ng/mL and the half-life is 2.97 h. In data set [1] (male, SD, plasma, IV 2 mg/kg, read-out: Tmax), the Tmax turned out to be 0.083 h. In addition, in data set [1] (male, SD, plasma, PO 10 mg/kg), the AUC(0-inf) was 4020 ng·h/mL, the Cmax is 266 ng/mL and the half-life was 5.69 h. The Tmax in data set [1] (male, SD, plasma, PO 10 mg/kg, read-out: Tmax) turned out to be 3 h. Besides, in data set [2] (5 mg/kg by gavage), the “writhing number lower than in the saline control group” value is given as 50% and the “number of appearance of writhing reaction” value was 20 times. Further, the “number of appearance of writhing reaction” value in data set [2] (10 mg/kg by gavage) is on record as 17 times. Also, the half effective dose result in data set [2] (acetic acid writhing, gavage) was “less than 5 mg/kg”.

What is called IC50 is the midpoint of a concentration-inhibition curve. By Tmax is commonly meant the time at which the peak concentration occurs. A word on the AUC(0-inf): it is the area under the concentration-time curve extrapolated to infinity. For orientation: Cmax means the maximum level reached in the sampled fluid or tissue.
